Reference: patent publication US9499553B2 (CHUGAI SEIYAKU KABUSHIKI KAISHA, priority 2013, dated 2016)

Key:
human PiT-1 = target: T1, human PiT-1 (Homo sapiens, UniProt Q8WUM9); experiment: Inhibitory effect on 33PO4 uptake into human PiT-1-expressing CHO cells; assay type: cell-based; conditions: compound 0.24, 1.2, 6 or 30 μM, pH 6.5, read-out: IC50 against 33PO4 uptake into human PiT-1-expressing cells
T1 construct: expressed in transfected cells; host or cells: CHO cells
T1 sequence (Q8WUM9 1-679): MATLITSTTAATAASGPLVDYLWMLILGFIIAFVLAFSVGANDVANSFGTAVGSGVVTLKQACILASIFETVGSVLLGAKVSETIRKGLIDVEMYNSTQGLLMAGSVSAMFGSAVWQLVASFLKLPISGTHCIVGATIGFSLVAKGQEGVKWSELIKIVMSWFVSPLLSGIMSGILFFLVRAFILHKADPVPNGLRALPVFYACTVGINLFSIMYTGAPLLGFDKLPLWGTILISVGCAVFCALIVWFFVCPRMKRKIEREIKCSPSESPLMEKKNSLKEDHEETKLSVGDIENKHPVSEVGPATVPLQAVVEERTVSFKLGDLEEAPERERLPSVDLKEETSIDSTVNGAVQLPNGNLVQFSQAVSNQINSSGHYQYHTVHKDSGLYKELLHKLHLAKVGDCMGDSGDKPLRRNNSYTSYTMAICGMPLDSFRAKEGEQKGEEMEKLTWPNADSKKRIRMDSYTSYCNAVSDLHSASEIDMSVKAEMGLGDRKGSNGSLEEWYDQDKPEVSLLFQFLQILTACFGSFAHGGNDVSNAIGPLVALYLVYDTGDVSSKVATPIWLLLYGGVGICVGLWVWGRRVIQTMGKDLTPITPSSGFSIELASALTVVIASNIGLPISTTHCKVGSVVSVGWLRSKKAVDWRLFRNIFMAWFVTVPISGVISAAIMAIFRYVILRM
In short: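 CHO cells transiently transfected with human PiT-1 or empty vector were exposed to compound, then to 33PO4 at room temperature and washed ice-cold; uptake counted by scintillation. Inhibition computed on PiT-1-specific uptake (PiT-1 minus vector cells) relative to DMSO wells.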

[1] = system: chronic kidney disease model rat; experiment: Suppressive effect on calcium deposition in blood vessel of chronic kidney disease model rat; assay type: in vivo; conditions: thoracic aorta, dosage 0.3% in feed, 14 weeks
Description: Test Example 9: Suppressive Effect on Calcium Deposition in Blood Vessel of Chronic Kidney Disease Model Rat
From the same animal as that in Test Example 7, the thoracic aorta was collected 14 weeks after the start of administration of the test compound, and the dry weight was measured. The measured dry thoracic aorta was subjected to ashing and dissolved in a certain amount of hydrochloric acid, and then the calcium concentration in the solution was measured using OCPC method to determine the amount of calcium per gram of the thoracic aorta dry weight (Katsumata K, Kusano K, Hirata M, Tsunemi K, Nagano N, Burke S K, Fukushima N. Sevelamer hydrochloride prevents ectopic calcification and renal osteodystrophy in chronic renal failure rats. Kidney Int. 2003 August; 64(2): 441-450.) The rate of suppression of calcium deposition in blood vessel was determined according to the following expression: Rate (%) of suppression of calcium deposition in blood vessel=(1−[(Amount of calcium per gram of dried blood vessel of the test compound-treated pathological group)−(Amount of calcium per gram of dried blood vessel of the normal group)]/[(Amount of calcium per gram of dried blood vessel of the reference pathological group)−(Amount of calcium per gram of dried blood vessel of the normal group)])×100

[2] = system: chronic kidney disease model rat; experiment: Suppressive effect on rise in serum creatinine concentration of chronic kidney disease model rat; assay type: in vivo; conditions: dosage 0.3% in feed, 14 weeks
From the text: Test Example 7: Suppressive Effect on Rise in Serum Creatinine Concentration of Chronic Kidney Disease Model Rat
A group given feed non-supplemented with the test compound was used as a reference pathological group, and a group neither subjected to the kidney removal nor antibody administration and given feed non-supplemented with the test compound was used as a normal group. Fourteen weeks after the start of administration of the test compound, blood was collected from the abdominal aorta and serum was collected. As an indicator of renal damage, serum creatinine concentrations were measured by an enzyme assay (creatinase-sarcosine oxidase-POD method). The rate of suppression of a rise in serum creatinine concentration was determined according to the following expression: Rate (%) of suppression of a rise in serum creatinine concentration=(1−[(Serum creatinine concentration of the test compound-treated pathological group)−(Serum creatinine concentration of the normal group)]/[(Serum creatinine concentration of the reference pathological group)−(Serum creatinine concentration of the normal group)])×100

- IC50 (human PiT-1): 2200 nM
Compound: COCCN(C)CCOc1ccc(CN2C(=O)C(C(=O)Nc3ccc(C(F)(F)F)cc3-c3cc(C(F)(F)F)ncn3)=C(O)C3(CCCC3)N2C)c(F)c1F [Example 14, 7-[[2,3-Difluoro-4-[2-[2-methoxyethyl(methyl)amino]ethoxy]phenyl]methyl]-10-hydroxy-6-methyl-8-oxo-N-[4-(trifluoromethyl)-2-[6-(trifluoromethyl)pyrimidin-4-yl]phenyl]-6,7-diazaspiro[4.5]dec-9-ene-9-carboxamide]
- Rate of inhibition (%) (suppression of calcium deposition in blood vessel) [1]: 100% 100%
- Rate of inhibition (%) (suppression of a rise in serum creatinine concentration) [2]: 24%
